The results in this text go back to PMC5342726, “Identification of small molecule inhibitors of ERCC1-XPF that inhibit DNA repair and potentiate cisplatin efficacy in cancer cells” (Oncotarget, 2016).

Read-outs that look alike come from different tables or passages of the source.

For this assay, the system named is H460 xenografts. As to conditions: for tumor growth, combination with cisplatin: 16168 20 mg/kg i.p. daily + cisplatin 3 mg/kg i.p. twice a week.

For `Cc1ccc(S(=O)(=O)Oc2cc(S(=O)(=O)O)cc3cc(S(=O)(=O)O)cc(N)c23)cc1` [NSC16168], the “tumor growth, combination with cisplatin” value is “inhibited H460 tumor growth”. The “tumor growth, combination with cisplatin” value (listed as Hit 2) is given as “significant effect on tumor growth compared with cisplatin alone”. Besides, the “tumor growth, single agent” value (16168 20 mg/kg i.p. daily or cisplatin 3 mg/kg i.p. twice a week, 10 days) is “tumor growth was minimally affected”.
